Source: US20120058208A1 (SYNTHITE INDUSTRIES LTD., priority 2010, published 2012)

Experiments:
[1] = test system: HCT-116 human xenograft; assay: In vivo anti-cancer activity in human colorectal (HCT-116) xenograft model in SCID mice
Description: Human colorectal (HCT-116) xenograft model in SCID mice
Five-week-old female mice purchased from the Advanced Centre for Treatment, Research and Education in Cancer (ACTREC) were used for in vivo experiments. The Institutional Animal Ethics Committee (IAEC) approved the in vivo study. Animals were injected with 1×10^6 HCT-116 cells subcutaneously in the flank region. Animals were monitored daily during the period between inoculation and palpable tumor growth. Tumor size was measured with a digital Vernier caliper and tumor-bearing mice were randomized into control and treatment groups (n=8), when the tumor volume was attained ˜100 mm^3. […] Tumor volume and was body weight was measured twice weekly. The following formula was used to calculate the tumor volume: Tumor volume=[…]. Percent reduction in tumor growth was calculated with respect to the Vehicle treated group.

[2] = given dose 50 mg/kg; adjuvant given with curcumin; cited from earlier work

For O=C(CCCCCCC(=O)Nc1ccccc1)NO [Vorinostat], the “% Redn. (percent reduction in tumor growth with respect to the Vehicle treated group)” value ([1]; 150 mg/kg oral once daily for 28 days) was 47%, the “Tumor volume, Mean ± SE, Day 0” value ([1]; 150 mg/kg oral once daily, Day 0) was 131.6 ± 23.1 mm^3 and the “Tumor volume, Mean ± SE, Day 4” value ([1]; 150 mg/kg oral once daily, Day 4) was 236.6 ± 42.7 mm^3. For the same compound, the “Tumor volume, Mean ± SE, Day 8” value ([1]; 150 mg/kg oral once daily, Day 8) was 334.4 ± 52.3 mm^3, the “Tumor volume, Mean ± SE, Day 12” value ([1]; 150 mg/kg oral once daily, Day 12) was 460.6 ± 76.0 mm^3 and the “Tumor volume, Mean ± SE, Day 16” value ([1]; 150 mg/kg oral once daily, Day 16) was 544.6 ± 79.1 mm^3. For the same compound, the “Tumor volume, Mean ± SE, Day 19” value ([1]; 150 mg/kg oral once daily, Day 19) was 669.6 ± 107.0 mm^3, the “Tumor volume, Mean ± SE, Day 22” value ([1]; 150 mg/kg oral once daily, Day 22) was 726.0 ± 120.8 mm^3 and the “Tumor volume, Mean ± SE, Day 26” value ([1]; 150 mg/kg oral once daily, Day 26) was 916.6 ± 157.9 mm^3. For the same compound, the “Tumor volume, Mean ± SE, Day 29” value ([1]; 150 mg/kg oral once daily, Day 29) was 979.1 ± 157.2 mm^3.

In the case of O=C(/C=C/C=C/c1ccc2c(c1)OCO2)N1CCCCC1 [piperine], the “enhancement of the bioavailability of curcumin” value [2] is given as 33%.

For CCCCC[C@H](O)CC(=O)CCc1ccc(O)c(OC)c1 [gingerol], the “enhancement of the bioavailability of curcumin” value [2] is listed as 43%.
